Entries after “also recorded” stand apart in the source; their conditions may differ. No end group written: not given here.

The subject of series [1] is human melanoma cell line (A375). Briefly: Intracellular tyrosinase activity inhibition assay (melanin production). To be noted: A375 cells, 60 h, N = 3. It is filed as cell-based. As to the method: (§1) A human melanoma cell line (A375) was provided by the Stem Cell Bank, Chinese Academy of Sciences. The A375 cell line was cultured in DMEM media containing 10% fetal bovine serum and 1% penicillin/streptomycin in an incubator at 37 °C and an atmosphere containing 5% CO2[32].
The A375 cells were seeded at a density of 1 × 10^5 cells/well in a 6-well plate and cultured for 12 h. […] After adding 0.5 ml NaOH (1 M), the cells were disrupted by sonication, and incubated at 50 °C for 10 min.

Series [2] deals with A375 cells. Briefly: MTT assay (cell viability). It is filed as cell-based, human. To be noted: 24 h, inhibitors 2.5 mM in PBS, absorbance 492 nm. How it is done:
as §1
The A375 cells were seeded at a density of 1 × 10^4 cells per well in a 96-well plate. They were incubated for 24 h at 37 °C under an atmosphere containing 5% CO2. Then, different tyrosinase inhibitors were added into the culture media. After incubation for 24 h, the cell viability was measured using the MTT assay, which was based on the conversion of MTT to formazan crystals by mitochondrial dehydrogenases. Briefly, the cell cultures were incubated with a 20 µl MTT solution (5 mg/mL) for 4 h at 37 °C. The culture supernatant was carefully removed from the well, and 150 µl DMSO was added followed by shaking for 10 min to dissolve the formazan crystals. Absorbance at 492 nm was measured using a microplate reader (VersaMax Microplate Reader)[35]. Cell viability of the control group in which […] was replaced by PBS was defined as 100%[36].

Series [3] relates to A375 melanoma cells. Put plainly: Number of proliferated melanoma cells. The class given is cell-based, human. As to the method: Fig. S3. The OD values at 475 nm of the solutions shown in Fig. 1A after storage for 12 months. Error
Fig. S4. Total number of proliferated melanoma cells in the presence of different tyrosinase inhibitors.
The concentration of each inhibitor is 2.5 mM. Error bars represent S.D. N=3. […]

For series [4] the following is noted: cited from earlier work. The text has this: However, the adverse side effects associated with their use have led to restrictions in their applications.
The target of series [5] is mushroom tyrosinase (Agaricus bisporus, UniProt C7FF04). Briefly: Comparison of tyrosinase inhibition rate (maximum reaction rate, IC50). The class given is biochemical. How it is done:
Figure 2. […] (D) The plot of the percentage of enzyme activity (Vss) vs the […] concentration [I]. IC50 of the inhibitors were directly obtained from the plots.
Before conducting the experiment, all the solutions, 96-well plates, and tips were heated at 37 °C. Equal volumes of tyrosine solutions (final concentration of 2.5 mM) were added to the 96-well plates, mixed with different concentrations of the inhibitors mentioned above and incubated for 10 min at 37 °C. Then, equal volume of the tyrosinase solution (100 U per well) was added to the 96-well plate using a multichannel pipette, which was placed immediately in a microplate reader under shaking conditions for 30 s. Finally, the light absorbance value at 475 nm was recorded at 37 °C continuously for 2 h with intervals of 20 s. The maximum reaction rate of tyrosinase at each concentration of the inhibitor was calculated.

The test system of series [6] is tyrosinase. Put plainly: CD spectroscopy. The class given is binding, mushroom. The settings on record: 200–260 nm, 293.15 K, mixture with tyrosinase, 0.2 mg/ml. How it is done:
The CD measurements were performed at 293.15 K with a bandwidth, step interval and scanning speed of 1.0 nm, 1 nm, and 50 nm min^−1, respectively.
Figure 4.

[7] abbreviates: 1 mM, comparison among arbutin, glutathione and EF-5.

mushroom tyrosinase, sequence (C7FF04 1-392): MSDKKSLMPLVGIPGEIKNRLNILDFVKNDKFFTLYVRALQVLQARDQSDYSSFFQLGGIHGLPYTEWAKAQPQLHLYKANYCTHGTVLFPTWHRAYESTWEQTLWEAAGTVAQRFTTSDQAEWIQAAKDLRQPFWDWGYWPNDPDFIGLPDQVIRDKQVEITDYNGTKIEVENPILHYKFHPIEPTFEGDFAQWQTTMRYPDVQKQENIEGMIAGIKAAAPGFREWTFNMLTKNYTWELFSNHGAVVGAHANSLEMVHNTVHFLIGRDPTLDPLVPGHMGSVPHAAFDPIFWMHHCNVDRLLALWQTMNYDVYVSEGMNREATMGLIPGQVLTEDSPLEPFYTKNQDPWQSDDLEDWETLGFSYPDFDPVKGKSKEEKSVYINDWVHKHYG

Regarding `OC[C@H]1O[C@@H](Oc2ccc(O)cc2)[C@H](O)[C@@H](O)[C@@H]1O` [arbutin], the melanin inhibitory effect entry in series [1] (setting [7]) is “the melanin inhibitory effects of arbutin and glutathione were similar”; in series [1] (arbutin 5 mM compared with EF-5 0.5 mM), “similar”. Also, the “cell viability / toxicity” value in series [2] is recorded as “the inhibitory effect of arbutin on the viability of melanoma cells is significant”. Further, the “total concentration of cells” value in series [3] (A375, arbutin 5 mM group versus EF-5 0.5 mM group) is “much lesser than that in the EF-5 (0.5 mM) group”. Further, the “inhibition of cell proliferation” value in series [3] (A375 melanoma cells, 2.5 mM, N=3) was “inhibit proliferation of the cells”. Moreover, the “contact dermatitis / exogenous ochronosis” value in series [4] is “contact dermatitis”.
Turning to `Oc1ccc(O)cc1` [hydroquinone], the “contact dermatitis / exogenous ochronosis” value in series [4] is given as “exogenous ochronosis”.
In the case of `O=c1cc(CO)occ1O` [kojic acid], in series [4], the carcinogenicity entry is recorded as “has demonstrated carcinogenicity”.
With ECGYF [EF-5, ECGYF], the “IC50 relative to IC50 of arbutin” value in series [5] (EF-5 IC50 as fraction of that of arbutin) is reported as “about 1/12”. The “cell viability / toxicity” value in series [2] is on record as “nontoxic to cells; also recorded: nontoxic to the melanocytes”.
For the compound glutathione, the “lag phase of the catalytic reaction of tyrosinase” value in series [5] (475 nm, 37 °C, compared with arbutin) is given as “may significantly increase the lag phase”. Moreover, the “change of CD spectrum of tyrosinase” value in series [6] was “does not show such changes”. Further, in series [1] (setting [7]), the melanin inhibitory effect result was “the melanin inhibitory effects of arbutin and glutathione were similar”.

(Values after publication PMC6746264, “Novel tyrosinase inhibitory peptide with free radical scavenging ability” (Journal of Enzyme Inhibition and Medicinal Chemistry, 2019).)
